Assay results taken from patent publication US4668677A, “4-phenylphthalazine derivatives, their preparation and their use as pharmaceuticals” (Mitsubishi Chemical Industries Limited, priority 1984, dated 1987).
Structures can show the parent of a compound that is named as a salt.

Assays:
[1] = test system: blood platelets; assay: Activity to inhibit the aggregation of blood platelets (collagen, ex vivo after oral administration); assay type: in vivo, rat (male Wistar-ST strain); conditions: Rattus norvegicus, Platelet; 10 mg/Kg oral, 1 hour after administration; collagen 7 to 10 μg/ml; read-out: Inhibitory rate (blood platelet aggregation)
Protocol: Male Wistar-ST strain rats of an average body weight of 250 g were used, a group consisting of 8 animals. The test compound indicated in the following Table 1 was orally administered to rats in the form of a suspension in a 1% tragacanth aqueous solution at 4 ml/Kg (the test compound 10 mg/Kg).
One hour after the administration, blood samples were obtained from the carotid artery by means of a cannule. […] Tubes were turned upside-down and then subjected to centrifugation at 200×g over 15 minutes to assign the supernatant as a platelet-rich plasma (PRP). The residue was further centrifuged at […] over 15 minutes to assign the supernatant as a platelet-poor plasma (PPP). These supernatants were applied for determining the ability to aggregate blood platelets. […] As an aggregation inducing agent, collagen (availale from Hormon-chemie A.G.) was used at a concentration of 7 to 10 μg/ml.
Inhibitory rate to aggregate blood platelets was calculated according to the following equation: [formula] A: […] in the group to which the 1% tragacanth solution alone was given (Control)
B: Aggregation rate in the group to which the tragacanth solution of the test compound was given.

[2] = test system: mice; assay: Anti-thrombotic activity: arachidonic acid-induced mortality in mice; assay type: in vivo, mouse (male ICR-JCL strain); conditions: for Survival time of dead mice: arachidonic acid 100 mg/Kg i.v.; for Mortality: arachidonic acid 100 mg/Kg i.v. after 1 hour
Protocol: (§1) Male ICR-JCL strain mice with an average body weight of about 25 g and male New Zealand White rabbits with an average body weight of about 3 Kg were used.
Where mice were used as experimental animals, a suspension of the test compound indicated in Table 3 in a 1% tragacanth aqueous solution was orally administered to animals at 20 ml/Kg. One hour after the administration, an arachidonic acid (PL-biochemical Co., Inc.) solution dissolved in a 0.1M sodium carbonate aqueous solution was intravenously given at 100 mg/Kg. Evaluation of activity was effected with the time from the administration of arachidonic acid up to the death of animals as well as mortality.

[3] = test system: rabbits; assay: Anti-thrombotic activity: arachidonic acid-induced mortality in rabbits; assay type: in vivo, rabbit (male New Zealand White); conditions: of 4 rabbits
Protocol: as §1
Where rabbits were used as experimental animals, a suspension of the test compound in a 1% tragacanth aqueous solution was orally administered to animals at 5 ml/Kg. Two hours after the administration, an arachidonic acid solution dissolved in a 0.1M potassium carbonate solution was injected into pinna vein at 1.4 mg/Kg.
Evaluation of activity was effected with mortality at the time when arachidonic acid given. If survived at the first administration of arachidonic acid, arachidonic acid was administered after 6 hours, 24 hours, 48 hours and 72 hours from the administration of the test compound, respectively, and mortality was determined in respective cases.

[4] = in vivo; conditions: rat, po, rats
[5] = test system: carotid artery; assay: Action on blood flow volume in carotid artery; assay type: in vivo, rabbit (male New Zealand White)
Protocol: (§2) Male New Zealand White rabbits (body weight of 2.8 Kg to 3.5 Kg) were used and anesthetized with pentobarbital sodium. Blood flow volumes in the carotid artery and femoral artery were measured and recorded via a non-blood observing type of a probe for measuring blood flow volume. Also, blood pressure in femoral artery was simultaneously measured and recorded with measurement of blood flow.
(§3) The compound of this invention was dissolved in an aqueous solution containing 1% tartaric acid and 1% dimethylacetamide, while papaverine hydrochloride dissolved in 0.9% physiological saline. These test compounds were intravenously given through a residual polyethylene tube within femoral vein.

[6] = test system: cerebral cortex; assay: Activity to increase topical cerebral blood flow, cerebral cortex (heat clearance method); assay type: in vivo, rabbit (male New Zealand White); conditions: change in blood flow expressed in terms of voltage
Protocol: as §3
(§4) Physiol. Scand., 67, 1 (1966); "Kokyu to Junkan" (in Japanese), 15, 435 (1967); the Journal of the Pharmacological Society of Japan, 71, 709 (1975)]. Simultaneously, blood pressure in femoral artery was also determined. Preparation and administration of test compounds were carried out in the same manner as in the above item (6).

[7] = test system: candate nucleus; assay: Activity to increase topical cerebral blood flow, candate nucleus (heat clearance method); assay type: in vivo, rabbit (male New Zealand White); conditions: change in blood flow expressed in terms of voltage
Protocol: as §3, §4

[8] = test system: femoral artery; assay: Action on blood flow volume in femoral artery; assay type: in vivo, rabbit (male New Zealand White)
Protocol: as §2, §3

[9] = test system: femoral artery; assay: Blood pressure in femoral artery, topical cerebral blood flow test; assay type: in vivo, rabbit (male New Zealand White)
Protocol: as §3, §4

[10] = test system: femoral artery; assay: Action on blood pressure in femoral artery; assay type: in vivo, rabbit (male New Zealand White)
Protocol: as §2, §3

[11] = test system: Thoracic aorta; assay: Calcium antagonistic activity (relaxation of thoracic aorta); assay type: cell-based, rat (male Wistar strain); conditions: Rattus norvegicus; final concentration 10 μM; 10 mM CaCl2
Protocol: Thoracic aorta was removed from male Wistar strain rats with a body weight of 350 g to 450 g and then spiral-shaped pieces of aorta were prepared therefrom. […] Thereafter, samples were further stabilized in Krebs-Henseleit solution containing no CaCl2 over 1 hour and then in a 80 mM KCl nutritive liquid wherein NaCl was exchanged with an equimolar KCl (depolarized liquid) over a further one hour. Then, samples were washed with the depolarized liquid and loaded with a static tension of 1.0 g. When CaCl2 was added to the nutritive liquid so as to reach a final concentration of 10 mM, tension was produced in samples and, after 15-20 minutes from the addition of CaCl2, the maximum tension was obtained. At this point, test compounds were applied and relaxing activity of test compounds was evaluated. Tension was determined in equal dimension.
Relaxation rate was calculated according to the following equation: [formula] A: Maximum tension generated B: Generated tension retained after administration of test compound
All test compounds were given in the form of a solution in dimethyl sulfoxide at a dose of 0.1 ml, whereupon a final concentration of dimethyl sulfoxide itself was adjusted to 0.5 V/V %.

`CC(C)CC(C)Nc1nnc(-c2ccccc2)c2ccccc12` (stereo not shown) [compound 16] showed an inhibition at 10 mg/kg [1] of 0%.
Work on `CC(C)Nc1nnc(-c2ccccc2)c2ccccc12` [compound 2] yielded an inhibition at 10 mg/kg [1] of 7.1%.
Compound `CCCC(C)Nc1nnc(-c2ccccc2)c2ccccc12` (stereo not shown) [compound 8] has an inhibition at 10 mg/kg [1] of 0%.
Compound `CCC(C)Nc1nnc(-c2ccccc2)c2ccccc12` (stereo not shown) [compound 5] has an inhibition at 10 mg/kg [1] of 0%.
With `CCCCCCCCNc1nnc(-c2ccccc2)c2ccccc12` [compound 20] the inhibition at 10 mg/kg [1] was 0%.
For `Clc1ccccc1CN1CCc2sccc2C1` [Ticlopidine, ticlopidine, reference compound], the “Survival time of dead mice” value ([2]; 300 mg/Kg oral) was 81 ± 13 s, the Mortality ([2]; 300 mg/Kg oral) was 100% and the “Survival time of dead mice” value ([2]; 1000 mg/Kg oral) was 128 ± 18 s. For the same compound, the Mortality ([2]; 1000 mg/Kg oral) was 100%, the “Mortality (number of rabbits)” value ([3]; 30 mg/Kg oral, 2 hrs. after administration) was 4 and the “Mortality (number of rabbits)” value ([3]; 100 mg/Kg oral, 2 hrs. after administration) was 3. For the same compound, the “Mortality (number of rabbits)” value ([3]; 100 mg/Kg oral, 6 hrs. after administration) was 1.
`CCCCCCCNc1nnc(-c2ccccc2)c2ccccc12` [compound 19] gave an inhibition at 10 mg/kg [1] of 0%.
In the case of `CC(C)CNc1nnc(-c2ccccc2)c2ccccc12` [compound 4], the inhibition at 10 mg/kg [1] is reported as 0%.
Work on `CC(C)C(C)Nc1nnc(-c2ccccc2)c2ccccc12` (stereo not shown) [compound 10] yielded an LD50 [4] of 2530 mg/kg and an inhibition at 10 mg/kg [1] of 54.1%.
Work on `CCC(CC)CNc1nnc(-c2ccccc2)c2ccccc12` [compound 15] yielded an inhibition at 10 mg/kg [1] of 14.6%.
For `CC(C)(C)Nc1nnc(-c2ccccc2)c2ccccc12` [compound 6], the inhibition at 10 mg/kg [1] was 0%.
In the case of `CCCNc1nnc(-c2ccccc2)c2ccccc12` [compound 1], the inhibition at 10 mg/kg [1] is reported as 27.6%.
With `COc1ccc(Cc2nccc3cc(OC)c(OC)cc23)cc1OC` [Papaverine hydrochloride, papaverine hydrochloride, reference compound] the “Blood flow volume in carotid artery, A: Before administration” value ([5]; 0.5 mg/Kg i.v.) was 18.6 mL/min, the “Blood flow volume in carotid artery, B: After administration” value ([5]; 0.5 mg/Kg i.v.) was 38.7 mL/min and the “Blood flow volume in carotid artery, C: Increase degree” value ([5]; 0.5 mg/Kg i.v.) was 20.1 mL/min. For the same compound, the “Blood flow volume in carotid artery, D: Increase rate” value ([5]; 0.5 mg/Kg i.v.) was 108.3%, the “Blood flow volume in carotid artery, A: Before administration” value ([5]; 1.0 mg/Kg i.v.) was 19.3 mL/min and the “Blood flow volume in carotid artery, B: After administration” value ([5]; 1.0 mg/Kg i.v.) was 26.3 mL/min. For the same compound, the “Blood flow volume in carotid artery, C: Increase degree” value ([5]; 1.0 mg/Kg i.v.) was 7.0 mL/min, the “Blood flow volume in carotid artery, D: Increase rate” value ([5]; 1.0 mg/Kg i.v.) was 33.2% and the “Increase in topical blood flow volume, Cerebral cortex” value ([6]; 0.3 mg/Kg i.v.) was 0.57 ± 0.11 Δ μV. The “Increase in topical blood flow volume, Cerebral cortex” value ([6]; 1 mg/Kg i.v.) was 1.05 ± 0.21 Δ μV, the “Increase in topical blood flow volume, Candate nucleus” value ([7]; 0.3 mg/Kg i.v.) was 0.19 ± 0.04 Δ μV and the “Increase in topical blood flow volume, Candate nucleus” value ([7]; 1 mg/Kg i.v.) was 0.35 ± 0.07 Δ μV. For the same compound, the “Blood flow volume in femoral artery, A: Before administration” value ([8]; 0.5 mg/Kg i.v.) was 16.8 mL/min, the “Blood flow volume in femoral artery, B: After administration” value ([8]; 0.5 mg/Kg i.v.) was 23.0 mL/min and the “Blood flow volume in femoral artery, C: Increase degree” value ([8]; 0.5 mg/kg i.v.) was 6.1 mL/min. The “Blood flow volume in femoral artery, D: Increase rate” value ([8]; 0.5 mg/kg i.v.) was 40.3%, the “Blood flow volume in femoral artery, A: Before administration” value ([8]; 1.0 mg/Kg i.v.) was 30.1 mL/min and the “Blood flow volume in femoral artery, B: After administration” value ([8]; 1.0 mg/Kg i.v.) was 40.0 mL/min. The “Blood flow volume in femoral artery, C: Increase degree” value ([8]; 1.0 mg/kg i.v.) was 9.8 mL/min, the “Blood flow volume in femoral artery, D: Increase rate” value ([8]; 1.0 mg/kg i.v.) was 32.7% and the “Lowering of blood pressure in femoral artery” value ([9]; 0.3 mg/Kg i.v.) was 15.0 ± 1.2%. The “Lowering of blood pressure in femoral artery” value ([9]; 1 mg/Kg i.v.) was 20.8 ± 3.4%, the “Blood pressure in femoral artery, A: Before administration” value ([10]; 0.5 mg/kg i.v.) was 94.8 mmHg and the “Blood pressure in femoral artery, B: After administration” value ([10]; 0.5 mg/kg i.v.) was 82.4 mmHg. The “Blood pressure in femoral artery, E: Lowering degree” value ([10]; 0.5 mg/kg i.v.) was 12.4 mmHg, the “Blood pressure in femoral artery, F: Lowering rate” value ([10]; 0.5 mg/kg i.v.) was 13.2% and the “Blood pressure in femoral artery, A: Before administration” value ([10]; 1.0 mg/kg i.v.) was 91.8 mmHg. The “Blood pressure in femoral artery, B: After administration” value ([10]; 1.0 mg/kg i.v.) was 68.8 mmHg, the “Blood pressure in femoral artery, E: Lowering degree” value ([10]; 1.0 mg/kg i.v.) was 23.1 mmHg and the “Blood pressure in femoral artery, F: Lowering rate” value ([10]; 1.0 mg/kg i.v.) was 25.3%. For the same compound, the inhibition at 10 µM [11] was 0%.
Work on `c1ccc(-c2nnc(NC3CCCC3)c3ccccc23)cc1` [compound 13] yielded an inhibition at 10 mg/kg [1] of 0%.
In the case of `CCC(C)CNc1nnc(-c2ccccc2)c2ccccc12` (stereo not shown) [compound 9], the LD50 [4] is reported as 2180 mg/kg and the inhibition at 10 mg/kg [1] is reported as 79.2%.
Compound `CCC(C)(C)Nc1nnc(-c2ccccc2)c2ccccc12` [compound 12] has an inhibition at 10 mg/kg [1] of 0%.
`CC(C)(C)CCNc1nnc(-c2ccccc2)c2ccccc12` [compound 17] showed an inhibition at 10 mg/kg [1] of 17.3%.
`CCCCCCNc1nnc(-c2ccccc2)c2ccccc12` [compound 14] showed an inhibition at 10 mg/kg [1] of 15.6%.
With `CCCCCNc1nnc(-c2ccccc2)c2ccccc12` [compound 7] the LD50 [4] was 1780 mg/kg and the inhibition at 10 mg/kg [1] was 6.2%.
Work on `CC(C)CCNc1nnc(-c2ccccc2)c2ccccc12` [compound 11] yielded an inhibition at 10 mg/kg [1] of 24%.
With `c1ccc(-c2nnc(NC3CCCCC3)c3ccccc23)cc1` [compound 18] the inhibition at 10 mg/kg [1] was 0%.
Work on `CCCCNc1nnc(-c2ccccc2)c2ccccc12` [compound 3] yielded an inhibition at 10 mg/kg [1] of 0%.
